From patent US20060223812A1, “Treating neurodegenerative conditions” (MAX-PLANCK-GESELLSCHAFT ZUR FORDERUNGDER WISSENSCHAFTEN, …, priority 2004, published 2006)

Target: T1, Aβ1-40 fibrils (Homo sapiens, UniProt P05067)
T1 construct: Commercial human Aβ1-40 was obtained from Calbiochem; purchased Calbiochem
Test: Disassembly of pre-formed Aβ fibrils (thioflavine T)
Format: biochemical
Settings: 60 μM compound, 10 μM Aβ1-40
Protocol: Besides the activity of the compounds towards tau fibres, their specificity is an important issue, i.e. the ability to discriminate between different types of aggregates. Therefore, an analysis of the influence of the compounds (60 μM) on amyloid fibrils made from the Aβ1-40 peptide, both in terms of inhibition of de novo filament formation and depolymerisation was performed (FIGS. 8A-B). These fibres are also abundant in Alzheimer brain and contain a core of cross-β-structure, but are located outside the cells, in contrast to the intracellular PHFs.
Commercial human Aβ1-40 was obtained from Calbiochem (Schwalbach, Germany) and stored at −20° C. The AD peptide was routinely dissolved in 100% DMSO to obtain a 2 mM stock solution, which was subsequently stored frozen at −20° C. […] For analysis 5 μl of this solution were added to 45 μl 10 mM phosphate buffer containing 6 μM thioflavine T, pH 6.0, after 30 minutes incubation at room temperature the fluorescence was measured at 504 nm emission by an excitation of 409 nm. To correlate fibril morphology with the fluorescence signal, aliquots of the Aβ1-40 solutions were simultaneously prepared for electron microscopy. […]

T1 sequence (P05067 672-711): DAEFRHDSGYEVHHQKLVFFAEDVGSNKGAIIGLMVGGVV

Compound: O=C(c1ccccc1)c1ccc(O)c(O)c1O [PHF005, 1-Phenyl-1-(2,3,4-trihydroxy-phenyl)-methanone]
- depolymerisation activity, Aβ fibrils: ~50%
